What was measured:
[1] = test system: malaria-induced anion channel; test: Malaria-induced anion channel activity, whole-cell patch-clamp; assay type: cell-based, Plasmodium falciparum; conditions: infected erythrocytes, 24 hours, 250 nM AD2646 or 10 μM PPMP, whole-cell patch-clamp (unpublished data)
Text: Sphingolipids preferentially interact with cholesterol in membranes, especially in detergent-resistant microdomains (DRMs or rafts). Rafts have been described in Plasmodium and are involved, at least, in the uptake of erythrocyte raft proteins and maintenance of the parasitophorous vacuole containing the parasite, inside the erythrocyte. This interaction implies : 1) van der Waals interactions between the saturated acyl chain and sphingoid moiety of sphingolipids and the rigid planar tetracyclic rings of cholesterol and 2) hydrogen bonds between the 3-β hydroxyl group of cholesterol and the fatty acyl carbonyl group resulting from the amide linkage with the sphingoid moiety. The amide-linked fatty acid function seems to have a profound stabilizing effect on cholesterol-sphingolipid interactions. It could be hypothesized that in a membrane context, methylene analogs might have a destabilizing effect on the cholesterol-sphingolipid interactions and, in consequence, modifications of membrane properties. Indeed, P. falciparum growth is characterized by a setting up of new permeabilities of the infected-erythrocyte membrane. Although the biochemical nature of these new permeabilities is still unknown, they have been characterized from an electrophysiological point of view and involve a malaria-induced anion channel. […]

[2] = test system: tubovesicular network of P. falciparum; test: Tubovesicular network formation, BODIPY-FL-C5-ceramide fluorescence microscopy; assay type: cell-based, Plasmodium falciparum
Description: Infected erythrocytes treated with or without ceramide analogs were incubated for 30 min, at 37°C, in culture medium containing 10 μM BODIPY-FL-C5-ceramide, washed three times with culture medium without serum and fixed overnight, at 4°C, in 3.7% formaldehyde/0.05% glutaraldehyde. Cells were mounted on poly-L-lysine coated slides and viewed using a Nikon Eclipse TE 300 DV inverted microscope with an 100X oil objective mounted on a piezzo electric device using appropriate fluorescence emission filters. Image acquisition (z-series) was performed with a back illuminated cooled detector (CCD EEV: NTE/CCD-1024-EB, Roper Scientific, France) using a 0.2 μm step. Data acquisition and image deconvolution process were performed with Metamorph software (Universal Imaging Corporation, Roper Scientific, France). The images presented correspond to the maximum intensity projection of the deconvoluted z-series.

[3] = test system: P. falciparum; design: method as in PMID 7568097; conditions: synchronized cultures at the ring stage; read-out: IC50 previously reported; cited from earlier work
[4] = test system: P. falciparum sphingomyelin synthase activity; test: Sphingomyelin synthase activity assay in trophozoite cultures (NBD-C6-ceramide); assay type: cell-based, Plasmodium falciparum; conditions: trophozoites 20-30 h, 0-500 μM drug, 10 μM NBD-C6-ceramide, 60 min, 37°C
Description: SPM synthase activity was measured as described by Haldar et al.. Briefly, assays were performed on P. falciparum cultures at the trophozoite stage (20–30 h old parasites). 400 μl of culture (1 × 10^8 parasites) were incubated for 60 min at 37°C with 10 μM NBD-C6-ceramide and 0 to 500 μM PPMP or AD2646. Cells were then lysed by freezing and thawing of the culture. Lipids were extracted by a modification of the method of Bligh and Dyer. To each sample, three volumes of a CH3OH/CHCl3 mixture (1:2, v:v) were added and the mixture vortexed for one min. Organic and aqueous phases were separated by centrifugation (12,000 × g, five min) and the organic phase was dried. Lipids were dissolved in 15 μl ethanol and analysed by thin layer chromatography on HPTLC plates (Silica gel 60 F254, Merck, Darmstadt, Germany) in CH3OH/[…]/NH4OH (75:25:4, v:v:v). For qualitative analyses, the fluorescent lipids were detected under UV and for quantitative analyses, the fluorescent lipid spots were scraped, eluted in one ml methanol and quantified at an excitation of 470 nm and an emission of 530 nm in a spectrofluorometer. The percentage of SPM synthase activity for each drug concentration was determined by comparison of the fluorescence quantified in the analog-treated culture with that in the control culture (without drug).

[5] = test system: chloroquine-resistant strain FcB1 of P. falciparum; test: Anti-Plasmodium activity, [3H]hypoxanthine microdilution on asynchronous cultures; assay type: cell-based, Plasmodium falciparum; conditions: Plasmodium falciparum; strain FcB1, asynchronous cultures, n = 3; read-out: IC50
Description: P. falciparum strains (FcB1/Colombia, K1/Thailand, F32/Tanzania, W2/Indochina) were maintained in continuous culture on human erythrocytes in RPMI medium containing 7% (v/v) heat-inactivated human serum under an atmosphere of 3% CO2, 6% O2, 91% N2, at 37°C, as described by Trager and Jensen. Parasite synchronization was performed successively by treatment with 5% (w/v) sorbitol and by concentration in gelatin solution as previously described.
Drug susceptibility assays were performed using a modification of the semi automated microdilution technique of Desjardins et al.. Stock solutions of test compounds were prepared in DMSO. Drug solutions were serially diluted twofold with 100 μl culture medium in 96-well plates. Asynchronous parasite cultures (100 μl, 1 % parasitemia and 1 % final hematocrite) were added to each well and incubated for 24 hours at 37°C prior to the addition of 0.5 μCi of [^3H] hypoxanthine (Amersham, France, 1 to 5 Ci.mmol/ml) per well. After a further incubation of 24 hour, plates were frozen and thawed. Cell lysates were then collected onto glass-filter papers and counted in a liquid scintillation spectrometer. The growth inhibition for each drug concentration was determined by comparison of the radioactivity incorporated in the treated culture with that in the control culture (having the same final % of DMSO) maintained on the same plate. The concentration causing 50% growth inhibition (IC50) and 90% growth (IC90) were obtained from the drug concentration-response curve and the results were expressed as the means ± the standard deviations determined from several independent experiments.

[6] = test system: P. falciparum synchronized cultures; test: Parasite stage-specific inhibitory effects and reversibility (Giemsa-stained smears); assay type: cell-based, Plasmodium falciparum; conditions: rings, 24 hours incubation with 5 μM, then drug removal (data not shown)
[7] = Cytotoxicity test upon human embryonic cells (MTT); assay type: cell-based; conditions: human, MRC-5 human diploid embryonic lung cells; MRC-5, five days, MTT; mean of three experiments
Description: (§1) A human diploid embryonic lung cell line (MRC-5, Bio-Whittaker 72211D) was used to assess the cytotoxic effects towards eukaryotic host cells. MRC-5 cells were seeded at 5,000 cells per well in 100 μl. After 24 hours, the cells were washed and two-fold dilutions of the drug were added in 200 μl standard culture medium (RPMI medium + 5% fetal calf serum) and maintained for five days under 5% CO2 atmosphere. The final DMSO concentration in the culture remained below 0.1%. Untreated cultures were included as controls. The cytotoxicity was determined using the colorimetric MTT assay according to the manufacturer's recommendations (Cell proliferation kit I, Roche Applied Science, France) and scored as a percentage of reduction in absorption at 540 nm of treated cultures versus untreated control cultures. […] The results were expressed as the mean ± the standard deviations determined from several independent experiments. The index of selectivity was defined as the ratio of the IC50 value on MRC-5 to that of P. falciparum.

[8] = test system: human MRC-5 cells; test: Cytotoxicity test upon human embryonic cells (MTT); assay type: cell-based; conditions: Homo sapiens, MRC5, 120 h; MRC-5, five days, MTT; mean of three experiments
Description: as §1

- IC50 [5]: 9 ± 1.7 µM
SMILES: CCCCCCCCCCCCCCCC(=O)NC(CN1CCOCC1)C(O)c1ccccc1 (stereo not drawn) [PPMP, d,1-threo-1-phenyl-2-palmitoylamino-3-morpholino-1-propanol, reference compound]
- induced anion channel activity [1]: did not modulate significantly the induced channel activity
- TVN formation ([2]; rings incubated 24 hours with 60 nM AD2646 or 5 μM PPMP): no TVN was observed
- ring development ([2]; rings, 24 hours, 5 μM): totally inhibited
- IC50 [3]: 0.85 µM
- inhibition of SPM synthase activity (shape of curve) [4]: biphasic inhibition curve
- reversibility of ring-stage block [6]: recovered to a normal growth after drug removal
- IC90 at 5 days [7]: 12.4 µM
- IC50 [8]: 7.5 µM

Source: article PMC539285, “Anti-Plasmodium activity of ceramide analogs” (Malaria Journal, 2004)
